Test results as given in patent US12285034B2, “Human and non-human animal use of microbial anaplerotic oil” (HELIAE DEVELOPMENT, LLC, priority 2017, dated 2025).

How the values were obtained:
[1] = tested on: Aurantiochytrium acetophilum HS399; assay: Alternative promoters of OCFA production (Example 17); conditions: for capacity to induce the production of OCFAs: flask cultures
Description: Further, it may be beneficial to find alternative promotors to produce OCFA that are less toxic to the model organisms or that are simpler. In this implementation, pentanoate, heptanoate, yeast extract, proteose peptone, methionine, valine and isoleucine are evaluated for their capacity to induce the production of OCFAs. Erlenmeyer flasks can be used and A. acetophilum HS399 can be cultured following the protocols described herein.
In this implementation, respective flasks can be supplemented with different concentrations of the proposed promoters and the resulting biomass harvested and analyzed for total lipid and fatty acid analyses.

[2] = tested on: Yarrowia lipolytica ATCC18944; assay type: cell-based; conditions: 192 h, itaconic acid 0.5 / propionate 6 g/L
Description: Culture conditions. In one implementation, Yarrowia lipolytica ATCC18944 can be cultivated in triplicates (n=3) in a medium containing (g/L): glycerol (80), monosodium […]), yeast extract (1), NaCl (12.5), MgSO4 (7), H2O (2.5), KCl (0.5), CaCl2 (0.1), KH2PO4 (0.5), trace metal solution (5 mL) and vitamin solution (1 mL). The trace element solution may contain (g/L): […] The vitamin solution can be filter-sterilized (e.g., using 0.2 μm pore size filter) containing (mg L-1): thiamine (100), biotin (0.5) and cyanocobalamin (0.5) unless otherwise stated. In some implementations cyanocobalamin might be added to or subtracted from the medium formulation to change or impact propionic acid deposition in OCFA. […] In one implementation, a concentration of the cyanocobalamin and/or cobalt in the culture medium can be below 0.4 μM. […] The flasks can be incubated in the dark in an orbital shaker at 180 rpm, 27° C. In this implementation, sodium propionate is fed batch every day according to respective treatments. […] Analyses. Cell dry weights can be obtained by drying samples that are previously vacuum filtrated (e.g., using 0.2 μm pore size filters). Residual propionate is analyzed directly by high performance liquid chromatography (HPLC). Lipids and total fatty acids are analyzed using a direct extraction, transesterification followed by gas chromatography (GC) and detection by flame ionization (FID). The different fatty acids are identified and quantified using appropriate internal and external standards. Propionic acid deposition rate.

[3] = tested on: Aurantiochytrium acetophilum HS399; assay: Cyanocobalamin and propionate deposition, flask (Example 10); assay type: cell-based
[4] = tested on: Aurantiochytrium acetophilum HS399; assay type: cell-based; conditions: acetic acid titrant (control), pH 7
Description: In this implementation, initially (24 h incubation), the culture pH may not be controlled, and the pH of the respective treatments can drift from 7.5 to 8. After 24 h incubation, the desired pH set point of each treatment can be set using the respective organic acids. […] The cultures are aerated at 1.4 vvm and maintained at 27° C. under axenic conditions. […] This medium also contains a trace element solution (5 ml/L) and a vitamin solution (1 ml/L). The trace element solution can contain (g/L): […] […] Residual glucose is analyzed from culture supernatant (5000 g; 5 min) using a colorimetric method based on glucose […] activity. Residual acetate and propionate are analyzed by HPLC using external standard.

[5] = tested on: Aurantiochytrium acetophilum HS399; assay: Cyanocobalamin impact on glucose metabolism (Examples 16, 20); assay type: cell-based; conditions: cyanocobalamin 0.37 μM vs 0, propionic acid 3 and 9 g/L
Description: (§1) As described above, OCFAs anaplerosis can merely take place in the presence of cyanocobalamin. In this implementation, the cell dry weight and residual propionate can be monitored, and residual glucose in the media can be analyzed.
(§2) Aurantiochytrium acetophilum HS399 was cultivated in the presence and absence of cyanocobalamin. […] The vitamin solution contained (mg/L): thiamine (100) and biotin (0.5). All culture materials were autoclaved (121° C., 15 min) and media was filter sterilized before use. […] Biomass for lipid analysis was centrifuged and washed using purified water. The washed biomass was freeze dried.
as §1, with “analyzed. […] Cell dry weight reached the same titers independently of the cyanocobalamin concentration.” for “analyzed.”

[6] = tested on: Aurantiochytrium acetophilum HS399; assay: Cyanocobalamin impact on propionate metabolism (Example 21); assay type: cell-based
Description: as §2, with “cyanocobalamin. […] The trace element solution contained (g/L):” for “cyanocobalamin.”, “dried. […] As described above, OCFAs anaplerosis can merely take place in the presence of cyanocobalamin. In this implementation, the cell dry weight and residual propionate can be monitored, and residual glucose in the media can be analyzed.” for “dried.”

[7] = cyanocobalamin 370 nM vs 0, propionic acid 16 g/L

With `CCCCCCC(=O)O` [heptanoate, heptanoic acid] the “toxicity (growth inhibition)” value ([1]; FIG. 53) was “higher than that of propionic acid”.
For `CC(C)[C@H](N)C(=O)O` [valine], the “capacity to induce the production of OCFAs” value [1] was “identified as a nitrogen and OCFAs source”.
In the case of `C=C(CC(=O)O)C(=O)O` [Itaconic acid, itaconic acid, reference compound], the Cell dry weight [2] is reported as 7.9 ± 1.1 g/L, the Consumed propionate [2] is reported as 5.0 ± 1.6 g/L and the “Odd chain fatty acids” value [2] is reported as 1.1 ± 0.6 % DW. The Propionic acid deposition [2] was 0.5 ± 0.2%.
`CSCC[C@H](N)C(=O)O` [methionine, reference compound] was tested, and the “effect of supplementation on growth” value ([3]; 0.5 g/L, with or without cyanocobalamin 0.00037 μM) was “does not appear to have an impact in growth”.
With `CC(=O)O` [Acetic acid, acetic acid, reference compound] the “Total Fatty Acid” value [4] was 71.9 ± 5.2 % CDW and the “Total Lipids” value [4] was 89.5 ± 0.5 % CDW.
For `CC[C@H](C)[C@H](N)C(=O)O` [isoleucine], the “capacity to induce the production of OCFAs” value [1] was “identified as a nitrogen and OCFAs source”.
With cyanocobalamin the “effect of cyanocobalamin deprived media on growth” value ([3]; over 10 generations) was “substantially no impact on growth”, the glucose uptake rate [5] was “significantly (P<0.01 t-student) lower” and the “growth in the first 48 hrs” value [5] was “may not be impacted”. The “effect on cell dry weight” value [6, 7] was “positive difference in cell dry weight”, the glucose uptake rate [6, 7] was “significantly (P<0.01 t-student) lower” and the “residual propionate in cultures deficient in cyanocobalamin” value ([6]; propionic acid 16 g/L, FIG. 58) was “chronical higher residual propionate”.
